Reference: patent publication US6737383B1, “Herbicidal oxadiazolidines” (priority 1999, dated 2004)

Tests used:
bedstraw = assay: Test B pre/postemergence bedstraw; format: in vivo, Galium aparine; conditions: Preemergence, Rate 62 g/ha; scale 0 to 10 (0 no effect, 10 complete control)
Outline: (§1)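 Test chemicals in a non-phytotoxic solvent mixture with surfactant were sprayed preemergence onto planted seeds and postemergence onto plants 2 to 18 cm tall (1- to 4-leaf stage). After twelve to sixteen days in a greenhouse, injury was visually rated against untreated controls from 0 (no effect) to 10 (complete control).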

blackgrass = assay: Test B pre/postemergence blackgrass; format: in vivo, Alopecurus myosuroides
Outline: as §1

surinam grass = assay: Test B pre/postemergence surinam grass; format: in vivo, Brachiaria decumbens
Outline: as §1

cocklebur = assay: Test B pre/postemergence cocklebur; format: in vivo, Xanthium strumarium
Outline: as §1

corn = assay: Test B pre/postemergence corn; format: in vivo, Zea mays
Outline: as §1

crabgrass = assay: Test B pre/postemergence crabgrass; format: in vivo, Digitaria sanguinalis
Outline: as §1

giant foxtail = assay: Test B pre/postemergence giant foxtail; format: in vivo, Setaria faberii
Outline: as §1

morningglory = assay: Test B pre/postemergence morningglory; format: in vivo, Ipomoea hederacea
Outline: as §1

pigweed = assay: Test B pre/postemergence pigweed; format: in vivo, Amaranthus retroflexus
Outline: as §1

rape = assay: Test B pre/postemergence rape; format: in vivo, Brassica napus
Outline: as §1

soybean = assay: Test B pre/postemergence soybean; format: in vivo, Glycine max
Outline: as §1

sugar beet = assay: Test B pre/postemergence sugar beet; format: in vivo, Beta vulgaris
Outline: as §1

velvetleaf = assay: Test B pre/postemergence velvetleaf; format: in vivo, Abutilon theophrasti
Outline: as §1

wheat = assay: Test B pre/postemergence wheat; format: in vivo, Triticum aestivum
Outline: as §1

wild oat = assay: Test B pre/postemergence wild oat; format: in vivo, Avena fatua
Outline: as §1

purple nutsedge = assay: Test B pre/postemergence purple nutsedge; format: in vivo, Cyperus rotundus
Outline: as §1

rice = assay: Test B flood test rice; format: in vivo, Oryza sativa
Outline: (§2)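 Plants were grown to the 2-leaf stage before treatment with test chemical, then held in a greenhouse for twelve to sixteen days. Injury was visually rated against untreated controls on a 0–10 scale, where 0 is no effect and 10 is complete control.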

smallflower flatsedge = assay: Test B flood test smallflower flatsedge; format: in vivo, Cyperus difformis
Outline: as §2

duck salad = assay: Test B flood test duck salad; format: in vivo, Heteranthera limosa
Outline: as §2

bamyardgrass = assay: Test B flood test barnyardgrass; format: in vivo, Echinochloa crus-galli
Outline: as §2

[1] = Postemergence, Rate 62 g/ha, scale of 0 to 10, 0 is no effect, 10 is complete control
[2] = Postemergence, Rate 125 g/ha, scale of 0 to 10 where 0 is no effect and 10 is complete control
[3] = Postemergence, Rate 250 g/ha, scale of 0 to 10, 0 is no effect, 10 is complete control
[4] = Postemergence, Rate 500 g/ha, scale of 0 to 10 where 0 is no effect and 10 is complete control
[5] = Preemergence, Rate 62 g/ha, scale 0 to 10 (0 no effect, 10 complete control)
[6] = Preemergence, Rate 125 g/ha, scale of 0 to 10 where 0 is no effect and 10 is complete control
[7] = Preemergence, Rate 500 g/ha, scale of 0 to 10 where 0 is no effect and 10 is complete control
[8] = Rate 62 g/ha, flood test species, Pre-emergence, visual evaluation after twelve to sixteen days
[9] = Rate 125 g/ha, under heading Pre-emergence, flood test species, visual evaluation after twelve to sixteen days
[10] = Rate 250 g/ha, Pre-emergence (flood test species), scale 0 to 10, 0 is no effect, 10 is complete control
[11] = Rate 500 g/ha, Pre-emergence section of Table B, 0 to 10 scale (0 no effect, 10 complete control)

CCc1nc(C)c(C(C)n2c(=O)on(C(=O)N(c3ccc(Cl)cc3)C(C)C)c2=O)s1 (stereo not drawn) [Compound 590]
2: Plant response rating, Crabgrass (crabgrass; [4]) | Morningglory plant response rating (morningglory; [1]) | Velvetleaf plant response rating (velvetleaf; [3]) | Plant response rating, Velvetleaf (velvetleaf; [4])
7: Giant foxtail plant response rating (giant foxtail; [7])
4: Plant response rating, Morningglory (morningglory; [4])
1: Plant response rating, Soybean (soybean; [2])
3: Crabgrass plant response rating (crabgrass; [7]) | Plant response rating, Morningglory (morningglory; [2]) | Morningglory plant response rating (morningglory; [3]) | Soybean plant response rating (soybean; [3]) | Plant response rating, Soybean (soybean; [4])
0: Bedstraw plant response rating (bedstraw) | Blackgrass plant response rating (blackgrass; [1]) | Plant response rating, Blackgrass (blackgrass; [2]) | Blackgrass plant response rating (blackgrass; [3]) | Plant response rating, Blackgrass (blackgrass; [4]) | Blackgrass plant response rating (blackgrass; [5]) | Blackgrass plant response rating (blackgrass; [6]) | Blackgrass plant response rating (0 to 10 scale) (blackgrass; Preemergence, Rate 250 g/ha) | Blackgrass plant response rating (blackgrass; [7]) | B. signalgrass plant response rating (surinam grass; [1]) | Plant response rating, B. signalgrass (surinam grass; [2]) | B. signalgrass plant response rating (surinam grass; [3]) | Plant response rating, B. signalgrass (surinam grass; [4]) | B. signalgrass plant response rating (surinam grass; [5]) | B. signalgrass plant response rating (surinam grass; [6]) | B. signalgrass plant response rating (0 to 10 scale, 0 is no effect, 10 is complete control) (surinam grass; Preemergence, Rate 250 g/ha) | B. signalgrass plant response rating (surinam grass; [7]) | Cocklebur plant response rating (cocklebur; [1]) | Plant response rating, Cocklebur (cocklebur; [2]) | Cocklebur plant response rating (cocklebur; [3]) | Plant response rating, Cocklebur (cocklebur; [4]) | Cocklebur plant response rating (cocklebur; [5]) | Cocklebur plant response rating (cocklebur; [6]) | Cocklebur plant response rating (0 to 10 scale) (cocklebur; Preemergence, Rate 250 g/ha) | Cocklebur plant response rating (cocklebur; [7]) | Corn plant response rating (corn; [1]) | Plant response rating, Corn (corn; [2]) | Corn plant response rating (corn; [3]) | Plant response rating, Corn (corn; [4]) | Corn plant response rating (corn; [5]) | Corn plant response rating (corn; [6]) | Corn plant response rating (0 to 10 scale) (corn; Preemergence, Rate 250 g/ha) | Corn plant response rating (corn; [7]) | Crabgrass plant response rating (crabgrass; [1]) | Plant response rating, Crabgrass (crabgrass; [2]) | Crabgrass plant response rating (crabgrass; [3]) | Crabgrass plant response rating (crabgrass; [5]) | Crabgrass plant response rating (crabgrass; [6]) | Giant foxtail plant response rating (giant foxtail; [1]) | Plant response rating, Giant foxtail (giant foxtail; [2]) | Giant foxtail plant response rating (giant foxtail; [3]) | Plant response rating, Giant foxtail (giant foxtail; [4]) | Giant foxtail plant response rating (giant foxtail; [5]) | Giant foxtail plant response rating (giant foxtail; [6]) | Morningglory plant response rating (morningglory; [5]) | Morningglory plant response rating (morningglory; [6]) | Morningglory plant response rating (morningglory; [7]) | Plant response rating, Redroot pigweed (pigweed; [2]) | Redroot pigweed plant response rating (pigweed; [3]) | Plant response rating, Redroot pigweed (pigweed; [4]) | Redroot pigweed plant response rating (pigweed; [5]) | Redroot pigweed plant response rating (pigweed; [6]) | Redroot pigweed plant response rating (pigweed; [7]) | Rape plant response rating (rape; [1]) | Plant response rating, Rape (rape; [2]) | Rape plant response rating (rape; [3]) | Plant response rating, Rape (rape; [4]) | Rape plant response rating (rape; [5]) | Rape plant response rating (rape; [6]) | Rape plant response rating (rape; [7]) | Soybean plant response rating (soybean; [5]) | Soybean plant response rating (soybean; [6]) | Soybean plant response rating (soybean; [7]) | Plant response rating, Sugarbeets (sugar beet; [2]) | Sugarbeets plant response rating (sugar beet; [3]) | Plant response rating, Sugarbeets (sugar beet; [4]) | Sugarbeets plant response rating (sugar beet; [5]) | Sugarbeets plant response rating (sugar beet; [6]) | Sugarbeets plant response rating (sugar beet; [7]) | Plant response rating, Velvetleaf (velvetleaf; [2]) | Velvetleaf plant response rating (velvetleaf; [5]) | Velvetleaf plant response rating (velvetleaf; [6]) | Velvetleaf plant response rating (velvetleaf; [7]) | Plant response rating, Wheat (wheat; [2]) | Wheat plant response rating (wheat; [3]) | Plant response rating, Wheat (wheat; [4]) | Wheat plant response rating (wheat; [5]) | Wheat plant response rating (wheat; [6]) | Wheat plant response rating (wheat; [7]) | Plant response rating, Wild oats (wild oat; [2]) | Wild oats plant response rating (wild oat; [3]) | Plant response rating, Wild oats (wild oat; [4]) | Wild oats plant response rating (wild oat; [5]) | Wild oats plant response rating (wild oat; [6]) | Wild oats plant response rating (wild oat; [7]) | Nutsedge plant response rating (purple nutsedge; [1]) | Plant response rating, Nutsedge (purple nutsedge; [2]) | Nutsedge plant response rating (purple nutsedge; [3]) | Plant response rating, Nutsedge (purple nutsedge; [4]) | Nutsedge plant response rating (purple nutsedge; [5]) | Nutsedge plant response rating (purple nutsedge; [6]) | Nutsedge plant response rating (purple nutsedge; [7]) | Plant response rating, Rice (0 to 10 scale, 0 is no effect, 10 is complete control) (rice; [8]) | Rice plant response rating (0 to 10 scale, 0 is no effect, 10 is complete control) (rice; [9]) | Rice plant response rating (rice; [10]) | Rice plant response rating (rice; [11]) | Plant response rating, S. Flatsedge (0 to 10 scale, 0 is no effect, 10 is complete control) (smallflower flatsedge; [8]) | S. Flatsedge plant response rating (0 to 10 scale, 0 is no effect, 10 is complete control) (smallflower flatsedge; [9]) | S. Flatsedge plant response rating (smallflower flatsedge; [10]) | S. Flatsedge plant response rating (smallflower flatsedge; [11]) | Plant response rating, Ducksalad (0 to 10 scale, 0 is no effect, 10 is complete control) (duck salad; [8]) | Ducksalad plant response rating (0 to 10 scale, 0 is no effect, 10 is complete control) (duck salad; [9]) | Ducksalad plant response rating (duck salad; [10]) | Ducksalad plant response rating (duck salad; [11]) | Plant response rating, Barnyardgrass (0 to 10 scale, 0 is no effect, 10 is complete control) (bamyardgrass; [8]) | Barnyardgrass plant response rating (0 to 10 scale, 0 is no effect, 10 is complete control) (bamyardgrass; [9]) | Barnyardgrass plant response rating (bamyardgrass; [10]) | Barnyardgrass plant response rating (bamyardgrass; [11])
